Results on four compounds are retold here after paper PMC6857474, “Differential Effects of the Mitochondria-Active Tetrapeptide SS-31 (D-Arg-dimethylTyr-Lys-Phe-NH2) and Its Peptidase-Targeted Prodrugs in Experimental Acute Kidney Injury” (Frontiers in Pharmacology, 2019).

Series [1] concerns BALB/c male mice. Nature of the series: Aristolochic acid (AA)-induced acute tubulo-interstitial kidney injury model. To be noted: AA 1 x 5 mg/kg i.p. alone; control group 44 ± 5. The class given is in vivo, mouse. How it is done: (§1) All experiments were conducted in accordance with federal and local regulations, according to a protocol approved by the animal ethics committee of the Canton de Vaud, Switzerland (No. 2655.0). Kidney injury was induced by intraperitoneal (i.p.) injection of AA (Sigma-Aldrich, 1 × 5 mg/kg) or ADR (Adriblastin, Pfizer, 1 × 10 mg/kg) in 10-week-old BALB/c male mice (n = 5–7 mice/experimental group). SS-31 analogs were diluted in 0.9% NaCl and administered i.p. once a day, starting 1 day before the disease-inducing drugs (day −1) at a dose of 3 mg/kg and then daily until day 6. The animals were weighted at days 0, 3, and 6, and sacrificed at day 7. The level of protein in urine was semi-quantitatively assessed using Albustix reagent strips (Bayer, Basel, Switzerland). At the end of the treatment period, the mice were sacrificed to remove both kidneys. The kidneys were spliced in four equal fragments containing the cortex and medulla. One fragment was immediately snap-frozen in liquid nitrogen for real-time quantitative polymerase chain reaction (qRT-PCR) and Western blot experiments, one fragment was included in OCT (Tissue-Tek, VWR International, Dietikon, Switzerland) and frozen for histoenzymography, one fragment was frozen at −80°C and used for pharmacokinetic (PK) measurements, and one fragment was fixed in 4% paraformaldehyde and included in paraffin for histology. […]

In series [2] the test system is BALB/c male mice. Nature of the series: Adriamycin (ADR)-induced glomerular damage model. The class given is in vivo, mouse. To be noted: ADR 1 x 10 mg/kg i.p. alone, at the time of sacrifice. The method, then: as §1
Series [3] concerns the target T1, γ-glutamyltranspeptidase (γ-GT) (Rattus norvegicus, UniProt P07314).
T1 construct: These cells express high levels of APA and γ-GT activities and can be used to measure kinetics in living cells; endogenous in cells; host or cells: EC219 rat brain-derived endothelial cells
Nature of the series: γ-GT enzymatic activity in intact living EC219 cells (γ-Glu-AMC substrate). The class given is cell-based. The settings on record: 40 µM γ-Glu-AMC. How it is done:
The preparation and characterization of rat brain-derived EC219 endothelial cells were previously described ([Juillerat-Jeanneret et al., 1992]). These cells express high levels of APA and γ-GT activities and can be used to measure kinetics in living cells as APA and γ-GT-positive representative cell models. The cells were grown in Dulbecco’s modified Eagle medium (DMEM) containing 1 g/L glucose, 10% heat-inactivated fetal calf serum (FCS), and antibiotics on uncoated cell culture plastic plates and flasks. […]
Stock solutions of α-Glu-AMC (APA) and γ-Glu-AMC and Gly-Gly (γ-GT) substrates, all from Bachem, were prepared at 10 mM in DMSO. […] The increase in absorbance was measured at 37°C in a thermostated fluorescence multiwell-plate reader (CytoFluor Series 4000; PerSeptive Biosystems, MA, USA) at λex = 360 nm/λem = 460 nm using the linear portion of the curves. The kinetics values were then graphically determined or according to Wu and colleagues ([Wu et al., 2011]).
(A) Intact living EC219 cells were exposed to increasing concentrations of either amastatin (left panel) or acivicin (right panel), two well-characterized enzymatic activity inhibitors of APA or γ-GT, respectively. The activities of the enzymes aminopeptidase A (APA) or γ-glutamyltranspeptidase (γ-GT) were determined using 40 µM of the substrates (S), α-Glu-AMC or γ-Glu-AMC, respectively. […] Data were analyzed graphically. […]

A further series concerns the target T2, aminopeptidase A (APA) (Mus musculus, UniProt P16406).
T2 construct: from tissue; host or cells: frozen kidney sections of ADR-treated BALB/c male mice
T2 sequence (P16406 1-945): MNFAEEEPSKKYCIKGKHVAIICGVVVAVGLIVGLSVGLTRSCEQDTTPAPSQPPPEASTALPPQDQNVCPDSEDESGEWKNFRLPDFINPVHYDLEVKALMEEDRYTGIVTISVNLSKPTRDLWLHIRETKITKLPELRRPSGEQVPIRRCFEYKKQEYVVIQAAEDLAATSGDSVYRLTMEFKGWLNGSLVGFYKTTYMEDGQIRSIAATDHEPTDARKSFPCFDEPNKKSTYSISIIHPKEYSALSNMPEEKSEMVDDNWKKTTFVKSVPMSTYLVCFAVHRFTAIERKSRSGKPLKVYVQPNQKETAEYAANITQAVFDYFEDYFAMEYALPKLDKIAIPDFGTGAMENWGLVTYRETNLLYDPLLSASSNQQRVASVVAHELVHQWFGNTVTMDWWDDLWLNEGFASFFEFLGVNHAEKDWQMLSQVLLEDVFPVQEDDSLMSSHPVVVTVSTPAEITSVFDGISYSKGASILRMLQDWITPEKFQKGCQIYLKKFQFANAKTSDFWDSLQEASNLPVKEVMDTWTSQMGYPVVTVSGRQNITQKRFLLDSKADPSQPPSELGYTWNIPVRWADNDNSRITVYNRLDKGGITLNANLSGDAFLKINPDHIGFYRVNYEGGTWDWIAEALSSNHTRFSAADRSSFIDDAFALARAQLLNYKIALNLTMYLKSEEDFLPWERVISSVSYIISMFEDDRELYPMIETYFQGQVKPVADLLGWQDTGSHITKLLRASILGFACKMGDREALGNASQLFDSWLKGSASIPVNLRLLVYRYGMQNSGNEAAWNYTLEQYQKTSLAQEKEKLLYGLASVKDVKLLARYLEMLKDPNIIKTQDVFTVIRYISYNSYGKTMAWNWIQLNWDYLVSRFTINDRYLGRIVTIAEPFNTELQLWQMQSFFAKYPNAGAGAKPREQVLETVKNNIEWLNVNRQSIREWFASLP
Nature of the series: Histoenzymography of APA activity on frozen kidney sections of ADR-treated mice. The class given is biochemical. To be noted: kidney sections of ADR-exposed mice, α-Glu-βNA substrate, 37°C. How it is done: (§2) Enzymatic activities were evaluated by histoenzymography on OCT-embedded frozen kidneys sections (7 µm), as previously described ([Juillerat-Jeanneret et al., 1992]; [Juillerat-Jeanneret et al., 2000]; [Juillerat-Jeanneret et al., 2003]). Briefly, slides were fixed for 5 min in cold (−20°C) acetone, air dried at room temperature, rehydrated for 5 min in 0.9% NaCl, and exposed to the α-Glu-4-methoxy-β-naphtylamide (APA; Bachem) or γ-Glu-4-methoxy-β-naphtylamide (γ-GT; Serva) substrates and Fast Blue B (Sigma-Aldrich) at 37°C for 15 to 60 min until a red coloration was visible. The slides were washed in distilled water, counterstained with hematoxylin (Mayer) for 1 min, rinsed under tap water and then with Scott solution for 1 min, and mounted in Aquamount (Immu-mount; Thermo Shandon, Pittsburgh, PA, USA) and analyzed with a Nikon Eclipse E800 microscope and digital DXM1200 camera using ACT-1 software.
(§3) Sequential sections (7 µm) of frozen OCT-embedded kidneys of adriamycin (ADR)-treated mice were exposed at 37°C to β-methoxynaphthylamide (β-NA) specific substrates of aminopeptidase A (α-Glu-βNA, upper panels) or γ-glutamyltranspeptidase (γ-Glu-βNA, lower panels) and Fast Blue B, in the absence (none) or the presence of SS-31, α-Glu-SS-31 or γ-Glu-SS-31. The sections were then counterstained with light hematoxylin reagent. The enzymatic activity is visualized as a red precipitate. […]

For series [4], the target named is T3, γ-glutamyltranspeptidase (γ-GT) (Mus musculus, UniProt Q60928).
T3 construct: from tissue; host or cells: frozen kidney sections of ADR-treated BALB/c male mice
Nature of the series: Histoenzymography of γ-GT activity on frozen kidney sections of ADR-treated mice. The class given is biochemical. To be noted: kidney sections of ADR-exposed mice, γ-Glu-βNA substrate, 37°C. The method, then: as §2, §3

T3 sequence (Q60928 whole entry): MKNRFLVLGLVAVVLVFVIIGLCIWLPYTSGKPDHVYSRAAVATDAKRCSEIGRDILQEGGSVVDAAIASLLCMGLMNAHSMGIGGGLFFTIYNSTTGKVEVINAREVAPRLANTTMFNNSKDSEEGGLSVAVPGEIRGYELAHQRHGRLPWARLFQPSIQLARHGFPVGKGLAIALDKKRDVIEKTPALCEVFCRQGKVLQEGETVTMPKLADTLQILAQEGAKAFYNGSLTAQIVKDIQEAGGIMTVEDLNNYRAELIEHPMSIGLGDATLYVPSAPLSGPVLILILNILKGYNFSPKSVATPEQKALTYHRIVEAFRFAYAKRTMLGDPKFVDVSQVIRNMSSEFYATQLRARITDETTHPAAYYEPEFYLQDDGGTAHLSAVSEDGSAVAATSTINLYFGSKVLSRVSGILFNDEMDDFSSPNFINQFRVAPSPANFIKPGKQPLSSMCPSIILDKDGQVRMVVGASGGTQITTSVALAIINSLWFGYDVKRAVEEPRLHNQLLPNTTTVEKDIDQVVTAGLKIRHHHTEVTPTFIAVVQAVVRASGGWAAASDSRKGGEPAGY
T1 sequence (P07314 whole entry): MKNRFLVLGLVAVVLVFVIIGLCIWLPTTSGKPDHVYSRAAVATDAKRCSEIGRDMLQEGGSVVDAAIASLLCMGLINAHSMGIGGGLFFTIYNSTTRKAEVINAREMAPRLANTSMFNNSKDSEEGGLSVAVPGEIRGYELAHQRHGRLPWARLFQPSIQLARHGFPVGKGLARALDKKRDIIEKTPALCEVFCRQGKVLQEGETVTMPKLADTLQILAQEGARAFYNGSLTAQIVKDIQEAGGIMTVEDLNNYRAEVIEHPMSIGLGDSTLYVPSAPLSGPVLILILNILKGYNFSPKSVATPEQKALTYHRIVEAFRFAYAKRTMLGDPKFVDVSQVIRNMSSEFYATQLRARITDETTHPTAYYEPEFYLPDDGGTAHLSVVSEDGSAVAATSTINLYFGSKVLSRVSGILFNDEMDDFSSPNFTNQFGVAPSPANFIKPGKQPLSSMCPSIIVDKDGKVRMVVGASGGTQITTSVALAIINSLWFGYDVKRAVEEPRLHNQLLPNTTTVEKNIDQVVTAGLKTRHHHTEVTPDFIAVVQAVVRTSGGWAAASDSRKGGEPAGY

In the series on BALB/c male mice [1], `COc1cccc2c1cc([N+](=O)[O-])c1c(C(=O)O)cc3c(c12)OCO3` [AA, aristolochic acid] came in with a mean creatinine of 258 ± 92 µmol/L.
In the series with BALB/c male mice [2], `COc1cccc2c1C(=O)c1c(O)c3c(c(O)c1C2=O)C[C@@](O)(C(=O)CO)C[C@@H]3O[C@H]1C[C@H](N)[C@H](O)[C@H](C)O1` [ADR, adriamycin] showed a mean creatinine of 33 ± 5 µmol/L.
What is called IC50 is the concentration that gives 50% inhibition. A higher IC50 goes with a need for much substance. Compound `N[C@H](C(=O)O)[C@@H]1CC(Cl)=NO1` [acivicin] gave an IC50 in series [3] of 48 µM. That is a double-digit micromolar value.
As to “H-γ-Glu-D-Arg-DMT-Lys-Phe-NH 2 .2TFA [γ-Glu-SS-31]”, at aminopeptidase A (APA), the “enzymatic activity of APA (histoenzymography)” value is recorded as “not”. Further, the “enzymatic activity of γ-GT (histoenzymography)” value in series [4] is “modified neither”.
